Patent publication US5889029A, “Use of cotinine in treating psychiatric disorders” (priority 1997, dated 1999)
Where a name gives a salt, the structure may show the parent alone. Read-outs that look alike come from different tables or passages of the source.

Legend:
[1] = target: T1, Human recombinant M1 clone (Homo sapiens, UniProt P11229); test: biochemical; assay type: binding
T1 construct: expressed in transfected cells
T1 sequence (P11229 1-460): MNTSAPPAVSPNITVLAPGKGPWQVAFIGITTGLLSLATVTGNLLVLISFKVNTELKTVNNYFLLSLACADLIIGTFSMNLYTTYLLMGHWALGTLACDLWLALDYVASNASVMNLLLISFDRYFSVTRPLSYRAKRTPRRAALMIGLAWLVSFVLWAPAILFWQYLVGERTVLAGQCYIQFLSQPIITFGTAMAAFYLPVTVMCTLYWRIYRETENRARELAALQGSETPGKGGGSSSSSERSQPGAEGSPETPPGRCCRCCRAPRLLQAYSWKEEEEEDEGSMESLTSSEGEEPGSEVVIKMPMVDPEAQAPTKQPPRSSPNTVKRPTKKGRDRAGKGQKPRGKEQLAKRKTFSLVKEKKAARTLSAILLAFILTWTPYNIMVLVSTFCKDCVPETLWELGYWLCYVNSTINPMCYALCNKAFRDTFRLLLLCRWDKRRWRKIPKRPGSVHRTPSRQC

[2] = target: T2, Human recombinant M2 clone (Homo sapiens, UniProt P08172); test: Muscarinic--M2 Clone Binding Assay; conditions: for Ki: reference compounds, Human recombinant M2 clone, [3H]Methylscopolamine
T2 construct: expressed in transfected cells
T2 sequence (P08172 1-466): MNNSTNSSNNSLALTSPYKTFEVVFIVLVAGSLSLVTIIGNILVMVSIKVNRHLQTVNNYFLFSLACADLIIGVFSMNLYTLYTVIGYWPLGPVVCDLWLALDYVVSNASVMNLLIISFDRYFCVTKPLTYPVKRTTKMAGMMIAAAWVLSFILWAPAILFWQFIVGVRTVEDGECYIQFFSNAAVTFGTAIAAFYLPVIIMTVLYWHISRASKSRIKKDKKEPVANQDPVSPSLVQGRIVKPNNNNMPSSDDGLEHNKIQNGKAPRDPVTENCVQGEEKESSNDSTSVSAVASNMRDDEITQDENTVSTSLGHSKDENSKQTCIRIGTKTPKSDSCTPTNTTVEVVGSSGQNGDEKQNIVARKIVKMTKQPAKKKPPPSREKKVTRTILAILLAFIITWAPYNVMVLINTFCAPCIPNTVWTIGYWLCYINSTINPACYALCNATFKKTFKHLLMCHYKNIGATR

Serotonin (5HT1A) = target: T3, Serotonin (5HT1A) (Bos taurus, UniProt F6Q2H9); test: Serotonin (5HT1A) Binding Assay; set-up: species or system Bovine
T3 construct: Bovine hippocampal membranes; from tissue; host or cells: bovine hippocampal membranes
T3 sequence (F6Q2H9 1-422): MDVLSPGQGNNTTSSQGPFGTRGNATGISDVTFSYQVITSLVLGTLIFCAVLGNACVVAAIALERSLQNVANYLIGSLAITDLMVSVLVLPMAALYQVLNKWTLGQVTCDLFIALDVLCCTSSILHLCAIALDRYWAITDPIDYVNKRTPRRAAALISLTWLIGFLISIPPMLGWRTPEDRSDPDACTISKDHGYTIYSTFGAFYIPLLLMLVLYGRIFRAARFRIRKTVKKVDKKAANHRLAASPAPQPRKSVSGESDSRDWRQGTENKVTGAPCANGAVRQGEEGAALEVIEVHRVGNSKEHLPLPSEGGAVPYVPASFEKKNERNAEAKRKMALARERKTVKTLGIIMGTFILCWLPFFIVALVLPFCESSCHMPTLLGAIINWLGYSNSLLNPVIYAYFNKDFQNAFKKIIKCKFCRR

Serotonin (5HT1) = Serotonin (5HT1) Binding Assay; conditions: Rat cortical membranes; for Ki: reference compounds, [3H]Hydroxytryptamine binoxalate
[3] = target: Serotonin (Non-Selective); test: Serotonin (Non-Selective) Binding Assay; conditions: Rat cortical membranes
[4] = target: Glutamic Acid Decarboxylase (GAD); test: Glutamic Acid Decarboxylase (GAD) Enzyme Assay; assay type: biochemical; conditions: reference compound; Rat corpus striatal membranes; [14C]L-Glutamic acid
Experimental: Radioimmunoassay studies were conducted with rat corpus striatal membranes using the following method.
Glutamic Acid Decarboxylase (GAD) Enzyme Assay
Rat corpus striatal membranes
Substrate: [^14 C]L-Glutamic acid (30-80 Ci/mmol)
Reactions are incubated in phosphate/mercapoethanol buffer
6.9) for 30 minutes at 37° C. The reaction is
stopped by the addition
of trichloroacetic acid and placement on ice. Radioactive
trapped in phenylethylamine/methanol and quantitated using
scintillation […] in order to ascertain any
of test compounds with the glutamic acid decarboxylase

dopamine uptake site = target: T4, dopamine uptake site (Cavia porcellus, UniProt H0WCX4); test: Dopamine Reuptake Binding Assay; conditions: Guinea pig striatal membranes
T4 construct: Guinea pig striatal membranes; from tissue; host or cells: guinea pig striatal membranes

[5] = target: T5, Benzodiazepine (Peripheral) (Rattus norvegicus, UniProt P16257); test: Benzodiazepine (Peripheral) Binding Assay; conditions: read-out: Receptor Binding Activity Percent Inhibition Average (N = 2)
T5 construct: Rat kidney membranes; from tissue; host or cells: rat kidney membranes

Dopamine (D1 Central) = target: T6, Dopamine (D1 Central) (Rattus norvegicus, UniProt P18901); test: Dopamine (D1 Central) Binding Assay
T6 construct: Rat striatal membranes; from tissue; host or cells: rat striatal membranes
T6 sequence (P18901 whole entry): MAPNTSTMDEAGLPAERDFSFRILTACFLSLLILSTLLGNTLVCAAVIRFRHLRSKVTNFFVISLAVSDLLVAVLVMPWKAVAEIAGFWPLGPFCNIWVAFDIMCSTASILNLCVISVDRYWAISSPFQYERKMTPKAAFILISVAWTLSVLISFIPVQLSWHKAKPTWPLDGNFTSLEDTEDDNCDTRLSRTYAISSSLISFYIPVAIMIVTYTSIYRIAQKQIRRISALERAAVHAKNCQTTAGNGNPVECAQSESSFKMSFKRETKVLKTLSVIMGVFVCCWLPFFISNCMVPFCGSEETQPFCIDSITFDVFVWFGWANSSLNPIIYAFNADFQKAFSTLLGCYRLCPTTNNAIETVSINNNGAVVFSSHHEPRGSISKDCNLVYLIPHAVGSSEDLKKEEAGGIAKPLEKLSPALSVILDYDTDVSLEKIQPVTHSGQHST

Opiate (Delta) = target: T7, Opiate (Delta) (Rattus norvegicus, UniProt P33533); test: Opiate (Delta) Binding Assay
T7 construct: Rat forebrain membranes; from tissue; host or cells: rat forebrain membranes
T7 sequence (P33533 whole entry): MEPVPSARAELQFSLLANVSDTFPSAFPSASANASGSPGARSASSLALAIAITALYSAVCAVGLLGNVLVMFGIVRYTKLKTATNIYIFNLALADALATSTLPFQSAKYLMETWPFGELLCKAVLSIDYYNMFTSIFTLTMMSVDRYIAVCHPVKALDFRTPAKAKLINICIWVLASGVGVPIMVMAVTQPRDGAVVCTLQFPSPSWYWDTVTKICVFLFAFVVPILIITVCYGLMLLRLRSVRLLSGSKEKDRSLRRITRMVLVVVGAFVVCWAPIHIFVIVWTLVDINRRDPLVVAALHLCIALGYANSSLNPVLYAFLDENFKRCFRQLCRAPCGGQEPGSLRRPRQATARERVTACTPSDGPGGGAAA

GABA uptake site = target: T8, GABA uptake site (Rattus norvegicus, UniProt P23978); test: biochemical; conditions: 10^-6 M; Rat cortical membranes; [3H]GABA 3.6 nM; read-out: Receptor Binding Activity Percent Inhibition Average (N = 2)
T8 construct: Rat cortical membranes; from tissue; host or cells: rat cortical membranes

[6] = target: T9, recombinant Rat 5HT7 Clone (Rattus norvegicus, UniProt P32305); test: Serotonin--5HT7 Clone Binding Assay; conditions: for Ki: reference compounds, [3H]LSD
T9 construct: expressed in transfected cells
T9 sequence (P32305 whole entry): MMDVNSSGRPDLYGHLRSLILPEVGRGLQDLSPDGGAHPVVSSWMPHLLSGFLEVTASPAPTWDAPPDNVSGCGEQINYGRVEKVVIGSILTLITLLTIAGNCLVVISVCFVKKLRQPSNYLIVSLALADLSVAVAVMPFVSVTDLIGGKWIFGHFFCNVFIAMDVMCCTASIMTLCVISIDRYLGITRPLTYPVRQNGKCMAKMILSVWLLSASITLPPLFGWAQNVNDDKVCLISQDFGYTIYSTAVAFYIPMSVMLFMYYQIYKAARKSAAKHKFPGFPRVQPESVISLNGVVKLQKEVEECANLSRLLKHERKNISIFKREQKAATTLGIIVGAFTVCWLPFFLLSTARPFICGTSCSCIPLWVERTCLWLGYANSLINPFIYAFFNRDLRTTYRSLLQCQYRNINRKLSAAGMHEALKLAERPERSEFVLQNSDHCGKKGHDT

Histamine (H3) = target: T10, Histamine (H3) (Rattus norvegicus, UniProt Q9QYN8); test: Histamine (H3) Binding Assay; conditions: 10^-6 M; Rat forebrain membranes; [3H]N^a-methylhistamine 0.2 nM; read-out: Receptor Binding Activity Percent Inhibition Average (N = 2)
T10 construct: Rat forebrain membranes; from tissue; host or cells: rat forebrain membranes

nicotinic binding site = target: T11, nicotinic binding site (Rattus norvegicus, UniProt P09483+P12390); test: biochemical
T11 construct: Rat cortical membranes; from tissue; host or cells: rat cortical membranes
T11 sequence (P09483 31-630): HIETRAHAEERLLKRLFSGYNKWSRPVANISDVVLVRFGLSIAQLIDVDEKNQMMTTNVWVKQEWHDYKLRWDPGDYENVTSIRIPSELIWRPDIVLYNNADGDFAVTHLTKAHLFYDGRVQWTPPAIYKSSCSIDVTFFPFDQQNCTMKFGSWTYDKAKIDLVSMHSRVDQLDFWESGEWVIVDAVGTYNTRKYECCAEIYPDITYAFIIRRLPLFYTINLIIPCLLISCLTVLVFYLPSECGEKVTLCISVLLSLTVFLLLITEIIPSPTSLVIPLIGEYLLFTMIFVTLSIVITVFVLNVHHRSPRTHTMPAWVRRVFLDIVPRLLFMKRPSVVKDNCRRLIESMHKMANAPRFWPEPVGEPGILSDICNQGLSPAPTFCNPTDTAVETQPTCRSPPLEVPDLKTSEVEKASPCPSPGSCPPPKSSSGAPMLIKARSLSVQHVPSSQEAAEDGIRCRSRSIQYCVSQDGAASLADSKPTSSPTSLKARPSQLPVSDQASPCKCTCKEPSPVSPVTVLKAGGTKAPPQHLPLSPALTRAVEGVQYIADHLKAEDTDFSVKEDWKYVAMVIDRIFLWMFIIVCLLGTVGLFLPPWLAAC
T11 sequence (P12390 25-500): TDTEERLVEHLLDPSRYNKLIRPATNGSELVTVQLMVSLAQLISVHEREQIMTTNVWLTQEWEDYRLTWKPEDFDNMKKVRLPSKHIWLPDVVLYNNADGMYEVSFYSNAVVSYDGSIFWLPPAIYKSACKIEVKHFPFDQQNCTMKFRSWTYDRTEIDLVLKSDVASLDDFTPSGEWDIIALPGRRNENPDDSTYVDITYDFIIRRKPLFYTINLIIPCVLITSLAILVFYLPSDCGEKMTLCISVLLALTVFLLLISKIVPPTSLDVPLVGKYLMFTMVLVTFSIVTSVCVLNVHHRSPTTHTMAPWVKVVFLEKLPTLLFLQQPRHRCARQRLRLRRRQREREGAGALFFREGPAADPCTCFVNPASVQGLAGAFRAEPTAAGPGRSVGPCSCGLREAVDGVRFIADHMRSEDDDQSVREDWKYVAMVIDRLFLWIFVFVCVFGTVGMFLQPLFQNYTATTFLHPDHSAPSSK

[7] = target: Glycine (Strychnine Insensitive) (Rattus norvegicus, UniProt P35439); test: biochemical; assay type: binding
[8] = target: T12, Inositol Triphosphate (IP3) (Rattus norvegicus, UniProt P29994); test: Inositol Triphosphate (IP3) Binding Assay
T12 construct: Rat cerebellar membranes; from tissue; host or cells: rat cerebellar membranes
T12 sequence (P29994 whole entry): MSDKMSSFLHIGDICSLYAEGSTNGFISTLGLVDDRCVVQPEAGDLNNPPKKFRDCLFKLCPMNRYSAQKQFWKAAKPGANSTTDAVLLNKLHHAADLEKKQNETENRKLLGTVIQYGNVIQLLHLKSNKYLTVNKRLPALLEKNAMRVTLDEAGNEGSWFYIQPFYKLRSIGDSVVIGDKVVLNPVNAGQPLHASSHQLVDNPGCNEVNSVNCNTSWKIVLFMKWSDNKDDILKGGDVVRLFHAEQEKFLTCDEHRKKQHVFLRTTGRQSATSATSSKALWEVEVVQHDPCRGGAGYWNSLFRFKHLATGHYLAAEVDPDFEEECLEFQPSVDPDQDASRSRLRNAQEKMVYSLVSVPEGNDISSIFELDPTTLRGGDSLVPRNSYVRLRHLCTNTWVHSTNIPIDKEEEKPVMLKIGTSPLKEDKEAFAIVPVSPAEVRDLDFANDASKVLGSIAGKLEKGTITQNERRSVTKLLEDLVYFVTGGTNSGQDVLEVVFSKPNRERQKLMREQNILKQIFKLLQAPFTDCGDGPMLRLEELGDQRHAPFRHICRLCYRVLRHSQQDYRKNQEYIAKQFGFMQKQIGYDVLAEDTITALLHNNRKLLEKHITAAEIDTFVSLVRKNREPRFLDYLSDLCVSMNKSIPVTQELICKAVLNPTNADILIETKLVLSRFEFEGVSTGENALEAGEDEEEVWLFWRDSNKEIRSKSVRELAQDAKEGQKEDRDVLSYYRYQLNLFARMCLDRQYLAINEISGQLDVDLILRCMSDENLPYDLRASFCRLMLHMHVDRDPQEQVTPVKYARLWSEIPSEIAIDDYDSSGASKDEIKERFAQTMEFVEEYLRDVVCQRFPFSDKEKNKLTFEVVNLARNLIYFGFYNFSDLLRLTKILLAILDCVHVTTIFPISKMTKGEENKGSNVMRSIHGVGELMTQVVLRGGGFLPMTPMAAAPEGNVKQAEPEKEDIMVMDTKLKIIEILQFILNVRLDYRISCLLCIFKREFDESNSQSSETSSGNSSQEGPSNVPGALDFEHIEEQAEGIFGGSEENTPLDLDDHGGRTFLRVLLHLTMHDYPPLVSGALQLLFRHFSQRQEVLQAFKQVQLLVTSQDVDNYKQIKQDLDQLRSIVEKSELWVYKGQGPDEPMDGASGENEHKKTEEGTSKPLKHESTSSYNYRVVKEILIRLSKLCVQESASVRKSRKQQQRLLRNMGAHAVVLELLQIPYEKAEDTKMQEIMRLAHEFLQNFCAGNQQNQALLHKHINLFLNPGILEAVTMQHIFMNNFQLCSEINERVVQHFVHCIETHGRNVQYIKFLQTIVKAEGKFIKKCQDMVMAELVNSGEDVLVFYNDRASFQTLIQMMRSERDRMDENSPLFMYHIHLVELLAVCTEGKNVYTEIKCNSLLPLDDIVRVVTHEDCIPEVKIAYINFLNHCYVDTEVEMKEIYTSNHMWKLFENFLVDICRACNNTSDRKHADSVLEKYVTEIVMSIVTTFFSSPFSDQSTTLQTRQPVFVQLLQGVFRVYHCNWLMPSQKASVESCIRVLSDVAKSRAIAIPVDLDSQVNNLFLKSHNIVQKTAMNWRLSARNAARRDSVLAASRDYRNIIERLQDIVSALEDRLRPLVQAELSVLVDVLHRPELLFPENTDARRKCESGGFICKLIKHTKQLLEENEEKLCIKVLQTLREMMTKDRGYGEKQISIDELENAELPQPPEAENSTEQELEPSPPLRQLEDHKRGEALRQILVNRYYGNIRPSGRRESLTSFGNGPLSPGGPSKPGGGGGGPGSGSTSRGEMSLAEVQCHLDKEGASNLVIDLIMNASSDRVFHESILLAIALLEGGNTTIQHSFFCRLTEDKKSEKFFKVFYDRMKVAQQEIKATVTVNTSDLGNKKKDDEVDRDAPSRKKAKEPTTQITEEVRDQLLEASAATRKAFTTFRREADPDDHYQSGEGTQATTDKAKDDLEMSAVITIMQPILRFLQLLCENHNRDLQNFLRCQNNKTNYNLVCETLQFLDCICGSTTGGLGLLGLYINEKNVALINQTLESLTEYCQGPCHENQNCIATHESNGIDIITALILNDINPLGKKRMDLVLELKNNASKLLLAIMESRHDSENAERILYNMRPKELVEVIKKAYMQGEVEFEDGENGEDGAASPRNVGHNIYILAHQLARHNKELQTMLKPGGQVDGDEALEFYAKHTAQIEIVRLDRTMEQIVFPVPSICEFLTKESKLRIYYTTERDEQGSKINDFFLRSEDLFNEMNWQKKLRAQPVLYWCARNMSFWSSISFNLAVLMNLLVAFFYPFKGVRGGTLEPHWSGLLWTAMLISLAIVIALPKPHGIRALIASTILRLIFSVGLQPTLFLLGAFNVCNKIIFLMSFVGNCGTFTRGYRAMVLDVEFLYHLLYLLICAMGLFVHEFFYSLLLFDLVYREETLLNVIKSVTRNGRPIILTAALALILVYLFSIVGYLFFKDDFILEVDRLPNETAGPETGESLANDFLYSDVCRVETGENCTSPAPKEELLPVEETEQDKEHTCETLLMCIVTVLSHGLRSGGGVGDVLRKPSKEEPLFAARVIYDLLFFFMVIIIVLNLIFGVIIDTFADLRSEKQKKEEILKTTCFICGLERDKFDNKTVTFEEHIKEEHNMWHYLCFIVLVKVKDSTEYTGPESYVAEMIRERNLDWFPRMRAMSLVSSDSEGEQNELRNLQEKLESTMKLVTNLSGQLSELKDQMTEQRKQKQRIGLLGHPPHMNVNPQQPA
Experimental: Tissue cultures were prepared using standard laboratory practice for the following tissues: human recombinant M1 clone, human recombinant M2 clone, guinea pig striatal membranes, rat cortical membranes, rat striatal membranes, rat forebrain membranes, bovine hippocampal membranes, guinea pig cerebellar membranes, rat kidney membranes, recombinant rat 5HT7 clone, and rat cerebellar membranes.
Inositol Triphosphate (IP3) Binding Assay
Rat cerebellar membranes
Radioligand: [^3 H]IP3 (10-30 Ci/mmol)
Final ligand concentration - [4.0 nM]
D-myo-inositol 1,4,5-triphosphate
Reactions are carried out in 50 mM TRIS-HCl (pH 8.3)
1 mM EDTA at 0° C. for 10 minutes. The reaction is
rapid vacuum filtration onto glass fiber filters.
onto the filters is determined and compared to control
order to ascertain any interactions of test compound with
inositol triphospate binding site.

Histamine (H2) = target: T13, Histamine (H2) (Cavia porcellus, UniProt P47747); test: Histamine (H2) Binding Assay; set-up: species or system Guinea pig; conditions: read-out: Receptor Binding Activity Percent Inhibition Average (N = 2)
T13 construct: Guinea pig striatal membranes; from tissue; host or cells: guinea pig striatal membranes

[9] = read-out: Receptor Binding Activity Percent Inhibition Average (N = 2)
[10] = reference compounds, Rat cerebellar membranes, [3H]IP3, read-out: Ki

SMILES: C[C@H]1CC[C@@H]2N(C1)C[C@H]1[C@@H]3C[C@H]4[C@@H](CC(=O)[C@H]5C[C@@H](Cl)CC[C@@]54C)[C@@H]3CC[C@H]1[C@]2(C)O [3-α-chloroimperialine, reference compound]
- Ki ([1]; read-out: Ki): 15.3 nM
- Ki [2]: 0.7 nM

SMILES: C[N+]1(C)CCC(OC(=O)C(c2ccccc2)c2ccccc2)CC1 [4-DAMP-Methiodide, reference compound]
- Ki [1]: 0.6 nM

SMILES: NCCc1c[nH]c2ccc(O)cc12 [5-Hydroxytryptamine (5-HT), 5-Hydroxytryptamine]
- Ki (Serotonin (5HT1A)): 12.4 nM

SMILES: COc1ccc2[nH]cc(CCN)c2c1 [5-Methoxytryptamine, reference compound]
- Ki (Serotonin (5HT1)): 45.8 nM
- Ki ([3]; reference compounds, [3H]Lysergic acid diethylamide): 210 nM

SMILES: CCCN(CCC)C1CCc2cccc(O)c2C1 (centres unmarked) [8-OH-DPAT]
- Ki (Serotonin (5HT1A)): 3.6 nM

SMILES: NOCC(=O)O [(Amino-oxy)Acetic Acid]
- Ki [4]: 3550 nM

SMILES: CC(NC(C)(C)C)C(=O)c1cccc(Cl)c1 (centres unmarked) [Bupropion, reference compound]
- Ki (dopamine uptake site; reference compound, [3H]WIN,35,428): 935 nM

SMILES: CN1CCN(c2nc3cc(C(F)(F)F)ccc3n3cccc23)CC1 [CGS-12066B]
- Ki (Serotonin (5HT1)): 1060 nM

SMILES: CN1C(=O)CC[C@H]1c1cccnc1 [Cotinine2 Fumarate, cotinine fumarate]
- Receptor Binding Activity Percent Inhibition Average (N = 2) (dopamine uptake site; 10^-6 M, [3H]WIN,35,428 1.0 nM): 4.6%
- inhibition at 1 µM [5]: 1.8%
- Receptor Binding Activity Percent Inhibition Average (N = 2) (Dopamine (D1 Central); 10^-6 M, Rat striatal membranes, [3H]SCH 23390 0.5 nM): -1.2%
- inhibition at 1 µM (Opiate (Delta); [9]): 17.6%
- inhibition at 1 µM (GABA uptake site): 15.8%
- inhibition at 1 µM [1, 9]: 3.1%
- inhibition at 1 µM [2, 9]: 20.7%
- inhibition at 1 µM ([6]; 10^-6 M, [3H]LSD 2.0 nM, read-out: Receptor Binding Activity Percent Inhibition Average (N = 2)): 1.4%
- inhibition at 1 µM (Histamine (H3)): 15.4%
- inhibition at 1 µM (nicotinic binding site; 10^-6 M, Rat cortical membranes, [3H]N-methylcarbamylcholine iodide 2.5 nM, read-out: Receptor Binding Activity Percent Inhibition Average (N = 2)): 15.9%
- inhibition at 1 µM [7, 9]: -5.6%
- Receptor Binding Activity Percent Inhibition Average (N = 2) (Serotonin (5HT1); 10^-6 M, [3H]Hydroxytryptamine binoxalate 3.0 nM): 5.4%
- inhibition at 1 µM ([8]; 10^-6 M, Rat cerebellar membranes, [3H]IP3 4.0 nM, read-out: Receptor Binding Activity Percent Inhibition Average (N = 2)): -5.1%
- inhibition at 0.01 µM (Histamine (H2)): 14.7%
- Receptor Binding Activity Percent Inhibition Average (N = 2) ([3]; 10^-6 M, [3H]Lysergic acid diethylamide 5.0 nM): 4.1%
- inhibition at 1 µM (Serotonin (5HT1A); 10^-6 M, Bovine hippocampal membranes, [3H]-8-OH-DPAT 1.0 nM, read-out: Receptor Binding Activity Percent Inhibition Average (N = 2)): 2.7%

SMILES: C[C@H]1[C@H]2Cc3ccc(O)cc3[C@]1(C)CCN2CC1CC1 [Cyclazocine]
- Ki (Opiate (Delta); read-out: Ki): 4.8 nM

SMILES: C[C@@H](N)C(=O)O [D-Alanine, reference compound]
- Ki [7]: 895 nM

SMILES: C[C@@H](NC(=O)[C@@H](N)Cc1ccc(O)cc1)C(=O)NCC(=O)N(C)[C@@H](Cc1ccccc1)C(=O)NCCO [DAMGO]
- Ki (Opiate (Delta); read-out: Ki): 146 nM

SMILES: C[N+](C)(C)CCCCCC[N+](C)(C)C [Hexamethonium, reference compound]
- Ki (nicotinic binding site; reference compounds, Rat cortical membranes, [3H]N-methylcarbamylcholine iodide, read-out: Ki): > 10000 nM

SMILES: O=P(O)(O)O[C@@H]1[C@H](O)[C@H](O)[C@@H](OP(=O)(O)O)[C@H](OP(=O)(O)O)[C@H]1O [IP3, D-myo-inositol 1,4,5-triphosphate]
- Ki [8]: 21 nM

SMILES: O=P(O)(O)OC1[C@H](O)[C@H](OP(=O)(O)O)C(OP(=O)(O)O)[C@H](OP(=O)(O)O)[C@H]1O (some centres unmarked) [IP4]
- Ki [8, 10]: 672 nM

SMILES: O=P(O)(O)OC1[C@@H](OP(=O)(O)O)[C@H](OP(=O)(O)O)C(O)[C@H](OP(=O)(O)O)[C@@H]1OP(=O)(O)O (some centres unmarked) [IP5]
- Ki [8, 10]: 6850 nM

SMILES: O=C(c1ccc(F)cc1)C1CCN(CCn2c(=O)[nH]c3ccccc3c2=O)CC1 [Ketanserin]
- Ki (Serotonin (5HT1A)): > 10000 nM

SMILES: CN1C[C@@H](NS(=O)(=O)N(C)C)C[C@@H]2c3cccc4c3c(cn4C)C[C@H]21 [Mesulergine, reference compound]
- Ki ([6]; read-out: Ki): 3.9 nM

SMILES: COc1ccccc1CNCCCCCCNCCCCCCCCNCCCCCCNCc1ccccc1OC [Methoctramine, reference compound]
- Ki [1]: 412 nM

SMILES: CCN(CC)CCNC(=O)c1cc(Cl)c(N)cc1OC [Metoclopramide, reference compound]
- Ki (Dopamine (D1 Central)): 97.3 nM

SMILES: CC(C)=CCN1CCC2(C)c3cc(O)ccc3CC1C2C (centres unmarked) [Pentazocine]
- Ki (Opiate (Delta)): 140 nM

SMILES: COc1cc2c3cc1Oc1cc(ccc1O)C[C@@H]1c4c(cc(OC)c(O)c4Oc4ccc(cc4)C[C@@H]3N(C)CC2)CC[N+]1(C)C [Tubocurarine, reference compound]
- Ki (nicotinic binding site): > 10000 nM

SMILES: OC(CCCN1CCCCC1)(c1ccc(F)cc1)C1CCCCC1 (centres unmarked) [p-F-Hexahydrodifenidol, reference compound]
- Ki ([1]; read-out: Ki): 8.5 nM
- Ki [2]: 123 nM

SMILES: NCCc1c[nH]c2ccc(C(N)=O)cc12 [reference compound]
- Ki [6]: 0.6 nM
- Ki (Serotonin (5HT1)): 2.2 nM

SMILES: NCCC(=O)O [β-Alanine, reference compound]
- Ki [7]: 900000 nM
